Measurements published in PubChem BioAssay (NCI).
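Grown in 96-well plates, cells were treated for 48 hours with each compound at five concentrations. Insufficient inhibition: endpoint recorded as highest concentration tested. At the TGI there is no net growth.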

Columns and labels:
Assay in all cases: NCI anticancer screen, dose series, 48 h
OVCAR-5 ovarian = tested on: OVCAR-5 ovarian
T-47D breast = tested on: T-47D breast
OVCAR-4 ovarian = tested on: OVCAR-4 ovarian
SF-295 CNS = tested on: SF-295 CNS
MDA-N = tested on: MDA-N
A549 NSCLC = tested on: A549 NSCLC
SF-539 CNS = tested on: SF-539 CNS
UACC-257 melanoma = tested on: UACC-257 melanoma
NCI-H522 lung = tested on: NCI-H522 lung
BT-549 breast = tested on: BT-549 breast
SK-MEL-28 melanoma = tested on: SK-MEL-28 melanoma
UACC-62 melanoma = tested on: UACC-62 melanoma
SR leukemia = tested on: SR leukemia
NCI-H226 lung = tested on: NCI-H226 lung
CAKI-1 renal = tested on: CAKI-1 renal
HL-60(TB) leukemia = tested on: HL-60(TB) leukemia
HS 578T breast = tested on: HS 578T breast
IGROV1 ovarian = tested on: IGROV1 ovarian
NCI/ADR-RES ovarian = tested on: NCI/ADR-RES ovarian
SW-620 colon = tested on: SW-620 colon
EKVX NSCLC = tested on: EKVX NSCLC
MDA-MB-435 = tested on: MDA-MB-435
LOX IMVI melanoma = tested on: LOX IMVI melanoma
786-0 renal = tested on: 786-0 renal
HOP-92 NSCLC = tested on: HOP-92 NSCLC
OVCAR-8 ovarian = tested on: OVCAR-8 ovarian
MDA-MB-231 breast = tested on: MDA-MB-231 breast
SK-MEL-2 melanoma = tested on: SK-MEL-2 melanoma
SNB-19 CNS = tested on: SNB-19 CNS
HCT-15 colon = tested on: HCT-15 colon
A498 renal = tested on: A498 renal
NCI-H23 lung = tested on: NCI-H23 lung
DU-145 prostate = tested on: DU-145 prostate
OVCAR-3 ovarian = tested on: OVCAR-3 ovarian
MCF7 breast = tested on: MCF7 breast
MALME-3M melanoma = tested on: MALME-3M melanoma
NCI-H460 lung = tested on: NCI-H460 lung
HOP-62 NSCLC = tested on: HOP-62 NSCLC
HCC-2998 colon = tested on: HCC-2998 colon
SK-MEL-5 melanoma = tested on: SK-MEL-5 melanoma
M14 melanoma = tested on: M14 melanoma
RXF 393 renal = tested on: RXF 393 renal
UO-31 renal = tested on: UO-31 renal
HCT-116 colon = tested on: HCT-116 colon
RPMI-8226 leukemia = tested on: RPMI-8226 leukemia
SN12C renal = tested on: SN12C renal
TK-10 renal = tested on: TK-10 renal
SF-268 CNS = tested on: SF-268 CNS
ACHN renal = tested on: ACHN renal
CCRF-CEM leukemia = tested on: CCRF-CEM leukemia
KM12 colon = tested on: KM12 colon
PC-3 prostate = tested on: PC-3 prostate
COLO 205 colon = tested on: COLO 205 colon
HT29 colon = tested on: HT29 colon
U251 CNS = tested on: U251 CNS

## COc1cc2c3c(c4ccc(O)cc4c2cc1OC)[C@@H](O)[C@@H]1CCCN1C3
OVCAR-5 ovarian
  TGI: 45.4 nM
T-47D breast
  TGI: 2.16 nM
OVCAR-4 ovarian
  TGI: 2.39 nM
SF-295 CNS
  TGI: 65.5 nM
MDA-N
  TGI: 145 nM
A549 NSCLC
  TGI: 2.6 nM
SF-539 CNS
  TGI: < 11.4 nM
UACC-257 melanoma
  TGI: 58.8 nM
NCI-H522 lung
  TGI: 7.81 nM
BT-549 breast
  TGI: 27 nM
SK-MEL-28 melanoma
  TGI: < 1 nM
UACC-62 melanoma
  TGI: 80.7 nM
SR leukemia
  TGI: 215 nM
NCI-H226 lung
  TGI: 13.7 nM
CAKI-1 renal
  TGI: 2.85 nM
HL-60(TB) leukemia
  TGI: 4740 nM
HS 578T breast
  TGI: 5.66 nM
IGROV1 ovarian
  TGI: 9.65 nM
NCI/ADR-RES ovarian
  TGI: 532 nM
SW-620 colon
  TGI: 1250 nM
EKVX NSCLC
  TGI: 6.25 nM
MDA-MB-435
  TGI: 7.2 nM
LOX IMVI melanoma
  TGI: 3.39 nM
786-0 renal
  TGI: 25.7 nM
HOP-92 NSCLC
  TGI: 19.1 nM
OVCAR-8 ovarian
  TGI: 480 nM
MDA-MB-231 breast
  TGI: 7.8 nM
SK-MEL-2 melanoma
  TGI: 4.29 nM
SNB-19 CNS
  TGI: 2.16 nM
HCT-15 colon
  TGI: 204 nM
A498 renal
  TGI: 6.25 nM
NCI-H23 lung
  TGI: 55.8 nM
DU-145 prostate
  TGI: 3.6 nM
OVCAR-3 ovarian
  TGI: 4.93 nM
MCF7 breast
  TGI: < 1 nM
MALME-3M melanoma
  TGI: 3.14 nM
NCI-H460 lung
  TGI: 15.5 nM
HOP-62 NSCLC
  TGI: 42.1 nM
HCC-2998 colon
  TGI: 2 nM
SK-MEL-5 melanoma
  TGI: 20.6 nM
M14 melanoma
  TGI: 8.83 nM
RXF 393 renal
  TGI: 2.9 nM
UO-31 renal
  TGI: 21.1 nM
HCT-116 colon
  TGI: 1.88 nM
RPMI-8226 leukemia
  TGI: 3.84 nM
SN12C renal
  TGI: 9.32 nM
TK-10 renal
  TGI: 6.49 nM
SF-268 CNS
  TGI: 1.8 nM
ACHN renal
  TGI: 38.1 nM
CCRF-CEM leukemia
  TGI: 7.3 nM
KM12 colon
  TGI: 8.37 nM
PC-3 prostate
  TGI: 175 nM
COLO 205 colon
  TGI: 145 nM
HT29 colon
  TGI: 34 nM
U251 CNS
  TGI: 2.41 nM
